From US8642656B2, “Calixarene-based peptide conformation mimetics, methods of use, and methods of making” (priority 2004, dated 2014)
Read-outs that look alike come from different tables or passages of the source.

Tests used:
Experiment in all cases: LPS neutralization assay (Limulus amoebocyte lysate, QCL-1000)
[1] = system: LPS from S. typhimurium; format: biochemical, Salmonella typhimurium; conditions: read-out: IC50 values (μM) for LPS binding, Salmonella
Excerpt: (§1) The ability of compounds to neutralize endotoxin was detected in vitro by using the chromogenic QCL-1000 kit from BioWhittaker, Inc. (Walkersville, Md.), and as described in their protocol. This Limulus amoebocyte lysate (LAL) assay is quantitative for Gram negative bacterial endotoxin (lipopolysaccharide, LPS). In this assay compounds that are active inhibit the LPS-mediated activation of a proenzyme whose active form would release p-nitroaniline (pNA) from a colorless synthetic substrate producing a yellow color (pNA) whose absorption is monitored spectrophotometrically at 405-410 nm. The initial rate of enzyme activation is proportional to the concentration of endotoxin present.
(§2) Variants of LPS from six Gram negative bacteria were used: E. coli serotypes 0111:B4 (Combrex, Walkersville, Md.) and 055:B5 (Sigma, St. Louis, Mo.); Klebsiella pneumoniae (List Biologies, San Jose, Calif.); Pseudomonas aeruginosa (List Biologies, San Jose, Calif.); Salmonella typhimurium (List Biologies, San Jose, Calif.), and Serratia marcascens (List Biologies, San Jose, Calif.). The concentration of compound required to neutralize a given LPS and therefore to inhibit the Limulus amoebocyte lysate driven by 0.04 units of any given LPS was determined by dose response curves fit by using a standard sigmoidal function to determined the JC50 value for each lopomimetic compound. The 0.04 units corresponds to 0.01 ng LPS from E. coli serotype 055:B5, 0.01 ng LPS from E. coli serotype 0111:B4, 0.003 ng LPS from K. pneumoniae, 0.01 ng LPS from P. aeruginosa, 0.03 ng LPS from S. typhimurium, and 0.03 ng LPS from S. marcascens.

[2] = system: LPS from P. aeruginosa; format: biochemical, Pseudomonas aeruginosa; conditions: read-out: IC50 values (μM) for LPS binding, P.a.
Excerpt: as §1, §2

[3] = system: LPS from S. marcascens; format: biochemical, Serratia marcascens; conditions: read-out: IC50 values (μM) for LPS binding, Serratia
Excerpt: as §1, §2

[4] = system: LPS from E. coli serotype 055:B5; format: biochemical
Excerpt: as §1, §2

[5] = system: LPS from E. coli serotype 0111:B4; format: biochemical; conditions: read-out: IC50 values (μM) for LPS binding, E. coli 0111:B4
Excerpt: as §1, §2

[6] = system: LPS from K. pneumoniae; format: biochemical, Klebsiella pneumoniae; conditions: read-out: IC50 values (μM) for LPS binding, Klebsiella
Excerpt: as §1, §2

[7] = Table 3, errors estimated ±30%, read-out: IC50 values (μM) for LPS binding, E. coli 055:B5
[8] = Table 2, read-out: IC50 values (μM) for LPS binding, E. coli 055:B4

Compound	IC50 ([1]; Table 3, errors estimated ±30%)	IC50 ([2]; Table 3, errors estimated ±30%)	IC50 ([3]; Table 3, errors estimated ±30%)	IC50 [4, 7]	IC50 ([5]; Table 3, errors estimated ±30%)	IC50 ([6]; Table 3, errors estimated ±30%)	IC50 ([1]; Table 2)	IC50 ([2]; Table 2)	IC50 ([3]; Table 2)	IC50 [4, 8]	IC50 ([5]; Table 2)	IC50 ([6]; Table 2)
5,11,17,23-Tetra-tert-butyl-25-(2-aminoethoxy)-27-(2-guanidinoethoxy)-26,28-dihydroxy Calix[4]arene trifluoroacetic acid salt [Compound 28]	2.6 µM	> 5 µM	> 5 µM	4.1 µM	> 5 µM	> 5 µM						
5,17-Di-(2-methallyl)-11,23-diallyl-25,26,27,28-tetrakis-N—(N,N-dimethyl-2-aminoethyl) carbamoylmethoxy calix[4]arene [Compound 41]	> 5 µM	> 5 µM	> 5 µM	3.6 µM	4.7 µM	> 5 µM						
5,17-Di-(2-methylpropyl)-11,23-dipropyl-25,26,27,28-tetrakis-N—(N,N-dimethyl-2-aminoethyl)carbamoylmethoxy calix[4]arene [Compound 17]	3.1 µM	> 5 µM	> 5 µM	3.8 µM	3.7 µM	2.1 µM						
5,17-Di-(hydroxycabonyl)ethyl-25,27-di-(3-methylbutoxy)-26,28-dihydroxycalix[4]arene [Compound 47]	> 5 µM	> 5 µM	> 5 µM	> 5 µM	> 5 µM	> 5 µM	> 5 µM	> 5 µM	> 5 µM	> 5 µM	> 5 µM	> 5 µM
25,27-Bis(2-guanidinoethoxy)-26,28-dihydroxy calix[4]arene trifluoroacetic acid salt [Compound 36]	> 5 µM	> 5 µM	> 5 µM	4.1 µM	3.9 µM	> 5 µM						
25,27-Bis[N-(2-aminoethyl)carbamoylmethoxy]-26,28-dihydroxy calix[4]arene [Compound 39]	> 5 µM	> 5 µM	> 5 µM	> 5 µM	> 5 µM	> 5 µM	0.6 µM	0.8 µM	1.5 µM	0.9 µM	1.6 µM	0.3 µM
25,27-Bis[N—(N,N-dimethyl-2-aminoethyl)carbamoylmethoxy]-26,28-dihydroxy calix[4]arene [Compound 38]	> 5 µM	> 5 µM	> 5 µM	> 5 µM	> 5 µM	> 5 µM						
CC(C)(C)c1cc2c(OCC(=O)NCCN)c(c1)Cc1cc(C(C)(C)C)cc(c1OCC(=O)NCCN)Cc1cc(C(C)(C)C)cc(c1OCC(=O)NCCN)Cc1cc(C(C)(C)C)cc(c1OCC(=O)NCCN)C2 [Compound 4]	0.6 µM	0.8 µM	1.5 µM	0.9 µM	1.6 µM	0.3 µM	0.8 µM	> 5 µM	> 5 µM	0.05 µM	2.7 µM	0.4 µM
CCCc1cc2c(OCC(=O)NCCN(C)C)c(c1)Cc1cc(CCC)cc(c1OCC(=O)NCCN(C)C)Cc1cc(CCC)cc(c1OCC(=O)NCCN(C)C)Cc1cc(CCC)cc(c1OCC(=O)NCCN(C)C)C2 [Compound 11b]	0.8 µM	> 5 µM	> 5 µM	0.05 µM	2.7 µM	0.4 µM						
NCCNC(=O)COc1c2cccc1Cc1cccc(c1O)Cc1cccc(c1OCC(=O)NCCN)Cc1cccc(c1O)C2 [Compound 20]							1.2 µM	> 5 µM	> 5 µM	> 5 µM	> 5 µM	> 5 µM
CC(C)CCOc1c2cccc1Cc1cc(CCCP(=O)(O)O)cc(c1O)Cc1cccc(c1OCCC(C)C)Cc1cc(CCCP(=O)(O)O)cc(c1O)C2 [Compound 48]	> 5 µM	> 5 µM	> 5 µM	> 5 µM	> 5 µM	> 5 µM	> 5 µM	> 5 µM	> 5 µM	> 5 µM	> 5 µM	> 5 µM
